Among the data in patent US20220251084A1, “PROGRANULIN MODULATORS AND METHODS OF USING THE SAME” (ARKUDA THERAPEUTICS, priority 2019, published 2022) are EC50 values, retold here.

Some results are limits rather than exact numbers.

The first experiment concerns progranulin (PGRN) secretion, BV-2 cells. Put plainly: PGRN assay: progranulin induction cellular assay (ELISA of secreted mouse PGRN). Type of experiment: cell-based.
Conditions: not given
As for the experimental part:
Cellular Assays: To measure the efficacy of compounds, a progranulin induction cellular assay in mouse primary microglia (pMG), primary cortical neurons, and BV-2 cell lines is used. BV-2 cells are split the day before plating into a 96 well plate format at approximately 80%. Cells should be plated the day before and allowed for 1 hour attachment period and for 16 hour incubation. […] Standard ELISA kits to measure PGRN are available from vendors such as Adipogen, R&D, and Biovendor.
On to `O=C(O[C@@H]1CN2CCC1CC2)N1CCn2ccnc2C1c1ccc(F)cc1` (stereo partly drawn) [Compound 2123, (S)-quinuclidin-3-yl 8-(4-fluorophenyl)-5,6-dihydroimidazo[1,2-a]pyrazine-7(8H)-carboxylate], for which the EC50 is more than 10 µM.

Staying with this experiment, now noted: Mus musculus, BV-2.
As to `CNC(=O)c1ccc2c(c1)CCN(C(=O)O[C@@H]1CN3CCC1CC3)[C@H]2c1ccc(F)cc1` [Compound 2100], the EC50 is more than 10 µM.

The same experiment, now with this note: Mus musculus, BV-2, PGRN assay, Table C; secreted mouse PGRN in cell culture medium, ELISA.
For the molecule `CN1CCC2(CC1)CC(OC(=O)N1CCc3ccccc3[C@@H]1c1ccc(F)cc1)C2` [Compound 2018], the EC50 was 1.89 µM. As for `C#CCOc1ccc2c(c1)C(c1ccc(F)cc1)N(C(=O)OCC13CCN(CC1)CC3)CC2` (stereo in doubt) [Compound 2053, (S)-quinuclidin-4-ylmethyl 1-(4-fluorophenyl)-7-(prop-2-ynyloxy)-3,4-dihydroisoquinoline-2(1H)-carboxylate], the EC50 amounted to 5.74 µM. Still for that read-out and setting: the result for `CN1CC2COC[C@@H](C1)[C@H]2OC(=O)N1CCc2ccccc2[C@@H]1c1ccc(F)cc1` (single isomer, unassigned) [Compound 2106] reads more than 10 µM. `C#CCOCCN1CCC(OC(=O)N2CCc3ccccc3[C@@H]2c2ccc(F)cc2)CC1` [Compound 2197, 1-(2-(prop-2-yn-1-yloxy)ethyl)piperidin-4-yl (S)-1-(4-fluorophenyl)-3,4-dihydroisoquinoline-2(1H)-carboxylate] came in with an EC50 of 1.06 µM.

The molecule `CN1C[C@@H]2[C@@H](COC(=O)N3CCc4ccccc4[C@@H]3c3ccc(F)cc3)[C@@H]2C1` [Compound 2023] came in with an EC50 of 1.18 µM.

In turn, `CN1CCC(OC(=O)N2CCc3ccccc3[C@@H]2c2ccc(F)cc2)CC1` [Compound 2020] had an EC50 of 0.23 µM. With `O=C(NCC12CCN(CC1)C2)N1CCc2ccccc2[C@@H]1c1ccc(F)cc1` [Compound 2193, (S)—N-((1-azabicyclo[2.2.1]heptan-4-yl)methyl)-1-(4-fluorophenyl)-3,4-dihydroisoquinoline-2(1H)-carboxamide], the EC50 was 2.51 µM.

`CN1CCC(COC(=O)N2CCc3ccccc3[C@H]2c2ccc(F)c(F)c2)CC1` (single isomer, unassigned) [Compound 2139, (1-methylpiperidin-4-yl)methyl-1-(3,4-difluorophenyl)-3,4-dihydroisoquinoline-2(1H)-carboxylate] yielded an EC50 of more than 10 µM. On to `CN1CC2(CC[C@@H]2OC(=O)N2CCc3ccccc3[C@@H]2c2ccc(F)cc2)C1` [Compound 2021], for which the EC50 amounted to 0.735 µM. On the same count and under the same terms, under `COC(C(=O)N1CCc2ccccc2[C@@H]1c1ccc(F)cc1)C1CN2CCC1CC2` (stereo partly drawn) [Compound 2175, 1-((S)-1-(4-fluorophenyl)-3,4-dihydroisoquinolin-2(1H)-yl)-2-methoxy-2-(quinuclidin-3-yl) ethenone] stands 4.13 µM; under `O=C(N[C@@H]1CCCNC1)N1CCc2ccccc2[C@@H]1c1ccc(F)cc1` [Compound 2172], 0.43 µM. Take `COC(=O)c1ccc2c(c1)CCN(C(=O)OCC13CCN(CC1)CC3)[C@H]2c1ccc(F)cc1` [Compound 2072]: a half-maximal response (EC50) required 8.08 µM. This EC50 is about 19-fold higher than that of the molecule before. For the molecule `COC(=O)c1ccc2c(c1)CCN(C(=O)OCC13CCN(CC1)CC3)[C@@H]2c1ccc(F)cc1` [Compound 2073], the EC50 is more than 10 µM. As to `O=C(N1CCc2ccccc2[C@@H]1c1ccc(F)cc1)C(F)(F)C1(O)CN2CCC1CC2` (stereo partly drawn) [Compound 2198, 2,2-difluoro-1-((S)-1-(4-fluorophenyl)-3,4-dihydroisoquinolin-2(1H)-yl)-2-(3-hydroxyquinuclidin-3-yl)ethan-1-one], the EC50 was more than 10 µM. Regarding `O=C(C(O)[C@@H]1CN2CCC1CC2)N1CCc2ccccc2[C@@H]1c1ccc(F)cc1` (stereo partly drawn) [Compound 2074, 1-((S)-1-(4-fluorophenyl)-3,4-dihydroisoquinolin-2(1H)-yl)-2-hydroxy-2-(quinuclidin-3-yl)ethanone], the midpoint of the response, the EC50, lay at 3.4 µM. The same measure, in the same setting: under `COC(=O)c1ccc2c(c1)[C@H](c1ccc(F)cc1)N(C(=O)N[C@@H]1CN3CCC1CC3)CC2` [Compound 2116, methyl (S)-1-(4-fluorophenyl)-2-(((S)-quinuclidin-3-yl)carbamoyl)-1,2,3,4-tetrahydroisoquinoline-7-carboxylate] stands more than 10 µM; under `O=C1C[C@H](COC(=O)N2CCc3ccccc3[C@@H]2c2ccc(F)cc2)CCN1` (single isomer, unassigned) [Compound 2185, (1 S)-(2-oxopiperidin-4-yl)methyl 1-(4-fluorophenyl)-3,4-dihydroisoquinoline-2(1H)-carboxylate], more than 10 µM; under `COC(=O)c1ccc2c(c1)CCN(C(=O)N[C@@H]1CN3CCC1CC3)[C@@H]2c1ccc(F)cc1` [Compound 2089], more than 10 µM.

For `CNC(=O)c1ccc2c(c1)CCN(C(=O)NCC13CCN(CC1)CC3)[C@H]2c1ccc(F)cc1` [Compound 2070], the response was half-maximal at 3.62 µM (EC50). The molecule `CN1CCC2(CC1)CCN(C(=O)N1CCc3ccccc3[C@@H]1c1ccc(F)cc1)C2` [Compound 2121] showed an EC50 of more than 10 µM. The molecule `O=C(OCC12CCN(CC1)CC2)N1CCc2ccccc2[C@@H]1c1ccc(OCc2cncnc2)cc1` [Compound 2149] returned an EC50 of more than 10 µM. On the same count and under the same terms, under `CNC(=O)c1ccc2c(c1)CCN(C(=O)OCC13CCN(CC1)CC3)[C@H]2c1ccc(F)cc1` [Compound 2080] stands more than 10 µM; under `CN1CCC(OC(=O)N2CCc3ccccc3[C@@H]2c2ccc(F)cc2)(C(F)(F)F)CC1` [Compound 2128, 1-methyl-4-(trifluoromethyl)piperidin-4-yl (S)-1-(4-fluorophenyl)-3,4-dihydroisoquinoline-2(1H)-carboxylate], 7.54 µM.

The same experiment, now with this note: Mus musculus, BV-2, PGRN assay, Table D; secreted mouse PGRN in cell culture medium, ELISA.
For `CN1CC[C@H](N(C)C(=O)N2CCc3ccccc3[C@@H]2c2ccc(F)cc2)C1` [Compound 2270, (S)-1-(4-fluorophenyl)-N-methyl-N—((S)-1-methylpyrrolidin-3-yl)-3,4-dihydroisoquinoline-2(1H)-carboxamide], the EC50 was 0.515 µM. Same read-out and setting: the result for `O=C(OCC1(F)CNC1)N1CCc2ccccc2[C@@H]1c1ccc(F)cc1` [Compound 2258] reads 0.27 µM. Molecule `CN1C[C@H](NC(=O)N2CCc3ccccc3[C@@H]2c2ccc(F)cc2)C(F)(F)C1` [Compound 2294, (S)—N—((S)-4,4-difluoro-1-methylpyrrolidin-3-yl)-1-(4-fluorophenyl)-3,4-dihydroisoquinoline-2(1H)-carboxamide] yielded an EC50 of more than 10 µM. Same read-out and setting: under `NC[C@@H]1CCN(C(=O)N2CCc3ccccc3[C@@H]2c2ccc(F)cc2)C1` [Compound 2279, ((S)-3-(aminomethyl)pyrrolidin-1-yl)((S)-1-(4-fluorophenyl)-3,4-dihydroisoquinolin-2(1H)-yl)methanone] stands 0.428 µM; under `CN(C)C[C@@H]1CCN(C(=O)N2CCc3ccccc3[C@@H]2c2ccc(F)cc2)C1` [Compound 2313, ((S)-3-((dimethylamino)methyl)pyrrolidin-1-yl)((S)-1-(4-fluorophenyl)-3,4-dihydroisoquinolin-2(1H)-yl)methanone], 2.94 µM. `CN(C(=O)N1CCc2ccccc2[C@@H]1c1ccc(F)cc1)[C@@H]1CCCNC1` (single isomer, unassigned) [Compound 2213] returned an EC50 of 3.53 µM.

In the case of `O=C(N[C@H]1CNC[C@H]1F)N1CCc2ccccc2[C@@H]1c1ccc(F)cc1` [Compound 2352], the midpoint of the response, the EC50, lay at 0.125 µM. Against the preceding molecule, the EC50 is about 28-fold lower.

`O=C(O[C@@H]1CNC[C@H]1F)N1CCc2ccccc2[C@@H]1c1ccc(F)cc1` [Compound 2349, (3R,4R)-4-fluoropyrrolidin-3-yl (S)-1-(4-fluorophenyl)-3,4-dihydroisoquinoline-2(1H)-carboxylate] registered a concentration giving a half-maximal response (EC50) of 0.346 µM.

Molecule `O=C(NC1(C2CCNCC2)CC1)N1CCc2ccccc2[C@@H]1c1ccc(F)cc1` [Compound 2208] gave an EC50 of 7.22 µM. Take `O=C(NCC1CNC1)N1CCc2ccccc2[C@@H]1c1ccc(F)cc1` [Compound 2257, (S)—N-(azetidin-3-ylmethyl)-1-(4-fluorophenyl)-3,4-dihydroisoquinoline-2(1H)-carboxamide acetate]: a half-maximal response (EC50) required 0.55 µM.

Consider `O=C(OC[C@@]1(F)CCNC1)N1CCc2ccccc2[C@@H]1c1ccc(F)cc1` (single isomer, unassigned) [Compound 2255], for which the EC50 worked out at 0.24 µM. Compared with the last molecule, the EC50 is about 2.3-fold lower.

Take `CN(C(=O)N1CCc2ccccc2[C@@H]1c1ccc(F)cc1)[C@H]1CCCNC1` (single isomer, unassigned) [Compound 2211]: the midpoint of the response, the EC50, lay at 3.03 µM.

For the molecule `O=C(NCC1CNC[C@@H]1O)N1CCc2ccccc2[C@@H]1c1ccc(F)cc1` (stereo partly drawn) [Compound 2308, (S)-1-(4-fluorophenyl)-N-((cis-4-hydroxypyrrolidin-3-yl)methyl)-3,4-dihydroisoquinoline-2(1H)-carboxamide], a half-maximal response (EC50) required 2.94 µM. In turn, `CN1CC[C@@H](NC(=O)N2CCc3ccccc3[C@@H]2c2ccc(F)cc2)C1` [Compound 2245] registered an EC50 of 0.46 µM. On the same count and under the same terms, the result for `CN1C[C@@H](NC(=O)N2CCc3ccccc3[C@H]2c2ccc(F)cc2)C2(CC2)C1` (single isomer, unassigned) [Compound 2318] reads 3.35 µM.

On to `CN1C[C@@H](NC(=O)N2CCc3ccccc3[C@@H]2c2ccc(F)cc2)C2(CC2)C1` (single isomer, unassigned) [Compound 2317], for which the EC50 is 9.74 µM.

Consider `CN1CC[C@@H](N(C)C(=O)N2CCc3ccccc3[C@@H]2c2ccc(F)cc2)C1` [Compound 2265], for which a half-maximal response (EC50) required 0.286 µM.

Still in this experiment, the particulars now being: PGRN assay, Table C; secreted mouse PGRN in cell culture medium, ELISA.
Consider `O=C(OC1[C@@H]2CC3C[C@@H]1CN(C3)C2)N1CCc2ccccc2[C@@H]1c1ccc(F)cc1` (stereo partly drawn) [Compound 2098], for which the EC50 came to 0.339 µM. Molecule `O=C(OC1CNC1)N1CCc2ccccc2[C@@H]1c1ccc(F)cc1` [Compound 2162] showed an EC50 of more than 10 µM.

The same experiment, now with this note: PGRN assay, Table D; secreted mouse PGRN in cell culture medium, ELISA.
`O=C(N[C@H]1CNCCOC1)N1CCc2ccccc2[C@@H]1c1ccc(F)cc1` (single isomer, unassigned) [Compound 2276] yielded an EC50 of 1.05 µM.

One may read the EC50 as the concentration giving half of the maximal effect. Higher therefore signals a less potent agent.
